Test results published in publication PMC8206089, “Split NanoLuc technology allows quantitation of interactions between PII protein and its receptors with unprecedented sensitivity and reveals transient interactions” (Scientific Reports, 2021).

Tests used:
[1] = target: T1, NAGK-SmBiT in complex with PII-LgBiT (ligand on NAGK) (Synechocystis sp. PCC 6803, UniProt P73326); test: NanoBiT luminescence, stimulation of PII-NAGK complex formation; format: binding; settings: 0-50 mM NAG, 2 mM ATP; 10 pM PII-LgBiT, 5 nM NAGK-SmBiT; pH 7.6, 2 mM MgCl2, 30 °C
T1 construct: gene argB; hexameric NAGK with N-terminal His6, C-terminal 16-aa linker and SmBiT; PII trimer with C-terminal Strep-tag and LgBiT; both from E. coli Lemo21; with Nitrogen regulatory protein P-II

[2] = target: T1, NAGK-SmBiT in complex with PII-LgBiT (ligand on NAGK); test: NanoBiT luminescence, Arg titration of PII-NAGK complex; format: binding; settings: 2 mM ATP or 1 mM ATP/1 mM ADP; allosteric; pH 7.6, 2 mM MgCl2, 30 °C

T1 sequence (P73326 whole entry): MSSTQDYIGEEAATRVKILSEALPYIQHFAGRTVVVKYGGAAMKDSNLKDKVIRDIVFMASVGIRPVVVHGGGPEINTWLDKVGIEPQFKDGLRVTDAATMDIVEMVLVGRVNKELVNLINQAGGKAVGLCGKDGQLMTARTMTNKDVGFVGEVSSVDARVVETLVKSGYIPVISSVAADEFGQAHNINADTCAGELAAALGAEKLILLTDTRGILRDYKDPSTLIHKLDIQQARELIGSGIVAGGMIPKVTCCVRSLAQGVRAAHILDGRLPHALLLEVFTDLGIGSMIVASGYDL
T1 sequence (Q55247 whole entry partner): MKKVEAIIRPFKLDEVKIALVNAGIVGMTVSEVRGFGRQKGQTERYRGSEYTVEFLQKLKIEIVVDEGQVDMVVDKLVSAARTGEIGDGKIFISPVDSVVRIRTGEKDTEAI

| SMILES | NanoBiT luminescence, stimulation of PII-NAGK complex formation [1] | NanoBiT luminescence, Arg titration of PII-NAGK complex [2] |
| --- | --- | --- |
| CC(=O)N[C@@H](CCC(=O)O)C(=O)O [NAG] | increasing NAG concentrations caused a dramatic increase in PII-NAGK interaction | – |
| N=C(N)NCCC[C@H](N)C(=O)O [Arg] | – | arginine was titrated to PII-LgBiT-NAGK-SmBiT complexes and luminescence was recorded |
